The target of one assay is T1, hCB1R (Homo sapiens, UniProt P21554).
T1 construct: expressed in transfected cells; host or cells: CHO cells stably expressing hCB1R
It is filed as binding.

The target of another assay is eeAChE (Electrophorus electricus, UniProt O42275). Put plainly: biochemical.
Another assay has as its target hBChE (Homo sapiens, UniProt P06276). Put plainly: biochemical. It is filed as biochemical.
The target in the next assay is hAChE (Homo sapiens, UniProt P22303). Nature of the assay: biochemical. It counts as biochemical.
Assay [1] concerns the target T2, hCB2R (Homo sapiens, UniProt P34972).
T2 construct: expressed in transfected cells; host or cells: HEK cells stably expressing hCB2R
Put plainly: biochemical. It counts as binding.

Assay [2] addresses T2, hCB2R. It is filed as cell-based.
Assay [3] addresses hAChE-induced Aβ40 aggregation (Homo sapiens, UniProt P22303). Put plainly: biochemical. It is filed as biochemical.
Another assay addresses Aβ42 (Homo sapiens, UniProt P05067). Put plainly: Aβ42 self-aggregation, thioflavin-T fluorescence assay. It is filed as biochemical. The conditions noted are these: for inhibition at 50 µM: read-out: % inhibition Aβ aggregation self-induced; for inhibition of Aβ42 self-aggregation (in words): 1/1 ratio with Aβ42.
The test system of assay [4] is murine microglial cell line N9. Put plainly: Microglia activation: LPS-activated N9 cells, M1/M2 markers (Griess reaction, western blot). It is filed as cell-based. The conditions noted are these: N9 cells, 100 ng/mL LPS, 1-5 µM compound, 24 h. Background: Griess reagent forms a coloured azo dye with nitrite.
Assay [5] concerns Aβ25-35-induced learning impairments in mice. The conditions noted are these: mouse, in vivo, ip.
The mark [6] stands for this setting: eeAChE from electric eel, read-out: IC50 AChE (eeAChE).

One may read the IC50 as the concentration that gives 50% inhibition. One may read the Ki as the equilibrium dissociation constant of an inhibitor or competing ligand from its target. The term inhibition denotes the change of the read-out against control, counted positive when it falls.

Where two headings read alike, the source gives them in different places.

Sequence of Aβ42 (P05067 672-713): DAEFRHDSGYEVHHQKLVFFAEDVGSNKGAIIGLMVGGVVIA
Sequence of hBChE (P06276 29-602): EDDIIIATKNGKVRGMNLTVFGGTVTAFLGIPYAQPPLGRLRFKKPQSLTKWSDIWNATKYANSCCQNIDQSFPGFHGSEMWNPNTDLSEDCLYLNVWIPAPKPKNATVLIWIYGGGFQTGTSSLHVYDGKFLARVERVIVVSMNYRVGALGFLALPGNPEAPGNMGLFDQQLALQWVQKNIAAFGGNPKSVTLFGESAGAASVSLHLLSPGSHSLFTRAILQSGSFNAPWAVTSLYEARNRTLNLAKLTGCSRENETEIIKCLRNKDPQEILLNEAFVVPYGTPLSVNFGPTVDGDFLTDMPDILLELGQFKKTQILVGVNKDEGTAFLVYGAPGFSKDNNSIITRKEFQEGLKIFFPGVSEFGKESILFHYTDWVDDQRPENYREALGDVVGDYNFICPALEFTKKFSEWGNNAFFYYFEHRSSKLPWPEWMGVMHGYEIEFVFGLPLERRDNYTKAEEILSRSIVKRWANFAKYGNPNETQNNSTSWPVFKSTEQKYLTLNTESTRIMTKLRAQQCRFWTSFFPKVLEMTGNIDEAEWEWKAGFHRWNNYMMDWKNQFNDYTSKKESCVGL
Sequence of eeAChE (O42275 24-633): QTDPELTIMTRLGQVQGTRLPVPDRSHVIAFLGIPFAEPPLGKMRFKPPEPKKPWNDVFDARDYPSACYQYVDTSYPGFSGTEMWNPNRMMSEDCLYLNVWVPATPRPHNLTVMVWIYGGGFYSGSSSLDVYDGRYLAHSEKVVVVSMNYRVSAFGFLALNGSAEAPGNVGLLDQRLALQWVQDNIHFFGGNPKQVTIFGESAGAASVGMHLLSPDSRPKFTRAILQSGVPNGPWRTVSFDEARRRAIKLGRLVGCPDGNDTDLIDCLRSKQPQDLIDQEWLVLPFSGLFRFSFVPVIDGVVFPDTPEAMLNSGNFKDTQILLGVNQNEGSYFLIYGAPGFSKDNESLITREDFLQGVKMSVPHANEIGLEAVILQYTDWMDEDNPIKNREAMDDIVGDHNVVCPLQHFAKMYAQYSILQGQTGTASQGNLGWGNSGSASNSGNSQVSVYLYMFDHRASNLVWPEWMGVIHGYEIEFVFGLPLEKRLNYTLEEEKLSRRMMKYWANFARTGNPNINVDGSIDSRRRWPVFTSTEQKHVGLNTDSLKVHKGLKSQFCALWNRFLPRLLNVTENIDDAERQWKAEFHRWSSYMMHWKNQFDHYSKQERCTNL
T2 sequence (P34972 whole entry): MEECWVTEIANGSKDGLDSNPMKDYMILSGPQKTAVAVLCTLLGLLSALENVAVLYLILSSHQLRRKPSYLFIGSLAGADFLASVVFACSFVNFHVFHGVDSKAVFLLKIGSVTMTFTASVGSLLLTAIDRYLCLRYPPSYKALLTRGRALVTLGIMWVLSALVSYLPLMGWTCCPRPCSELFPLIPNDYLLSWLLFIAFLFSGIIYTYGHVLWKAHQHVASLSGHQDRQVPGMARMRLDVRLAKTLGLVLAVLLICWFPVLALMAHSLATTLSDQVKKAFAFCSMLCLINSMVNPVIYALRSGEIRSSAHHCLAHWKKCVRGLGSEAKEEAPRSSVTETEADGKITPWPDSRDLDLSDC
Sequence of hAChE (P22303 32-614): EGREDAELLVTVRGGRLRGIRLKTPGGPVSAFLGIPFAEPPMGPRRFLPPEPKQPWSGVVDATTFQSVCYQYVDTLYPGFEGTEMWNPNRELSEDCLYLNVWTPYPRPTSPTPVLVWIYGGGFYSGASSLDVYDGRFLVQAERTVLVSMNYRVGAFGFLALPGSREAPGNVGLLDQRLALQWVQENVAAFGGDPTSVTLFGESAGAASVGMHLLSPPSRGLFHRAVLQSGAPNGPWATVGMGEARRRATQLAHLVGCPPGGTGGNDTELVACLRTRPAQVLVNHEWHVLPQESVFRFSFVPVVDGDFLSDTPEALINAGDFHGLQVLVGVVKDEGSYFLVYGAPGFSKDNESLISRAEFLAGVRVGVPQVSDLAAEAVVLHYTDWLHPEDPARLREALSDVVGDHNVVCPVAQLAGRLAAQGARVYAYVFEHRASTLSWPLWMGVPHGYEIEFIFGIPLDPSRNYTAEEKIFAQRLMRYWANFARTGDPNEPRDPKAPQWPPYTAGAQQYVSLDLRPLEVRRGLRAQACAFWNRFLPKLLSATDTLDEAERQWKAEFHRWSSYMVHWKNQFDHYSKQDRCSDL
T1 sequence (P21554 whole entry): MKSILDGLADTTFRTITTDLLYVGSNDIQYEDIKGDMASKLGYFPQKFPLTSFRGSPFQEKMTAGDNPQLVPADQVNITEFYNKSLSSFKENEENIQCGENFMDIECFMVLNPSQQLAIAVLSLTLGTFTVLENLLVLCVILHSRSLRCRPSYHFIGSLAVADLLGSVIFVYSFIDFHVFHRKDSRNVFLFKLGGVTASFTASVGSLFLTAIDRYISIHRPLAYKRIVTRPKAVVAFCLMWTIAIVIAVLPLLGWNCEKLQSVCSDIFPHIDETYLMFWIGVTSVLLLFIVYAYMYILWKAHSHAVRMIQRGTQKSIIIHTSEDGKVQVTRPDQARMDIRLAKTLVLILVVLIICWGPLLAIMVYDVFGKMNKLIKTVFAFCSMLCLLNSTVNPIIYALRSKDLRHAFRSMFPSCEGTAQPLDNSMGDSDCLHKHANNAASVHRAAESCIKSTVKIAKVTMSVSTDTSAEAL
Sequence of hAChE-induced Aβ40 aggregation (P22303 32-614): as the sequence (P22303 32-614) above

For `CCOc1ccc(Cc2nc3cc(C(=O)N(CC)CCCCNc4c5c(nc6ccccc46)CCCC5)ccc3n2CCC(C)C)cc1` [compound 5, 2-(4-ethoxybenzyl)-N-ethyl-1-isopentyl-N-(4-((1,2,3,4-tetrahydroacridin-9-yl)amino)butyl)-1H-benzo[d]imidazole-5-carboxamide], at hCB1R, the “[^3H]CP 55,940 displ. @10 µM hCB1R” value was 36% and the “affinity towards hCB1R (in words)” value was “higher affinity”. Further, at eeAChE (setting [6]), the IC50 worked out at 370 nM. Besides, the SI on hBChE was 6.2. Also, at hBChE (hBChE from human serum), the “pIC50 ± SD hBChE” value came to 7.2 ± 0.1. Besides, the IC50 on hBChE (hBChE from human serum, means of at least three determinations, read-out: IC50 hBChE) worked out at 60 nM. Moreover, the “pIC50 ± SD AChE (hAChE)” value at hAChE (hAChE recombinant expressed) is reported as 6.6 ± 0.1. For the same compound, on hAChE (hAChE recombinant expressed, read-out: IC50 AChE (hAChE)), the IC50 is 259 nM. Moreover, on hCB2R [1], the affinity, expressed as Ki, was 3160 nM; the “affinity towards hCB2R (in words)” value is “same affinity”; the “selectivity hCB2R over hCB1R (in words)” value is recorded as “low selectivity”. Moreover, the inhibition constant (Ki) at hCB2R [1] (read-out: Ki hCB2R) was determined as 3000 nM.

For the compound `CCOc1ccc(Cc2nc3cc(C(=O)NCCCCNc4c5c(nc6ccccc46)CCCC5)ccc3n2CCC(C)C)cc1` [4c, 2-(4-Ethoxybenzyl)-1-isopentyl-N-(4-((1,2,3,4-tetrahydroacridin-9-yl)amino)butyl)-1H-benzo[d]imidazole-5-carboxamide], the “[^3H]CP 55,940 displ. @10 µM hCB1R” value at hCB1R came out at 9%. Further, the IC50 at eeAChE (setting [6]) is 12.8 nM. Moreover, at hCB2R [2], the MIF gene expression result is recorded as “reduced”, the STAT-3 gene expression result is on record as “reduced” and the “behavior at the hCB2R” value is “maintained their agonist behavior”. The same compound showed an inhibitory constant (Ki) on hCB2R [1] of 2510 nM. Also, the Ki on hCB2R [1] (read-out: Ki hCB2R) was found to be 2400 nM.

As for `CCOc1ccc(Cc2nc3cc(C(=O)NCCCCCCNc4c5c(nc6ccccc46)CCCC5)ccc3n2CCC(C)C)cc1` [4e, 2-(4-Ethoxybenzyl)-1-isopentyl-N-(6-((1,2,3,4-tetrahydroacridin-9-yl)amino)hexyl)-1H-benzo[d]imidazole-5-carboxamide], the “[^3H]CP 55,940 displ. @10 µM hCB1R” value at hCB1R is on record as 54%. The IC50 on eeAChE (setting [6]) was found to be 8.5 nM. Further, the Ki is 10000 nM on hCB2R [1] and 9600 nM at hCB2R [1] (read-out: Ki hCB2R).

In the case of `CCOc1ccc(Cc2nc3cc(C(=O)NCCCCCNc4c5c(nc6ccccc46)CCCC5)ccc3n2CCC(C)C)cc1` [4d, 2-(4-Ethoxybenzyl)-1-isopentyl-N-(5-((1,2,3,4-tetrahydroacridin-9-yl)amino)pentyl)-1H-benzo[d]imidazole-5-carboxamide], on hCB1R, the “[^3H]CP 55,940 displ. @10 µM hCB1R” value worked out at 15%. For the same compound, the IC50 at eeAChE (setting [6]) was 52.7 nM. Also, the “pIC50 ± SD hCB2R (in brackets after Ki)” value against hCB2R [1] is 4.0 µM (5.4 ± 0.1). Further, at hCB2R [1] (read-out: Ki hCB2R), the Ki was found to be 4000 nM.

With `CCOc1ccc(Cc2nc3cc(C(=O)NCCCNc4c5c(nc6ccccc46)CCCC5)ccc3n2CCC(C)C)cc1` [4b, 2-(4-Ethoxybenzyl)-1-isopentyl-N-(3-((1,2,3,4-tetrahydroacridin-9-yl)amino)propyl)-1H-benzo[d]imidazole-5-carboxamide], the “[^3H]CP 55,940 displ. @10 µM hCB1R” value on hCB1R is 20%. Also, on eeAChE (setting [6]), the IC50 amounted to 3.2 nM. The “inhibition of AChE-induced Aβ40 aggregation (in words)” value in assay [3] is “significantly reduce”. Further, the inhibition at 100 µM in [3] ([I] = 100 µM, Aβ40/hAChE ratio 100/1, mean ± SEM, read-out: % inhibition Aβ aggregation AChE-induced) came to 47.8 ± 9.6%. The “inhibitory potency towards hBChE compared to tacrine” value on hBChE was “increased inhibitory potency”. The “inhibitory activity towards hAChE compared to tacrine” value against hAChE (compared to tacrine) was “higher inhibitory activity”. Also, the “pIC50 ± SD hCB2R (in brackets after Ki)” value against hCB2R [1] is given as 5.0 µM (5.3 ± 0.1). On hCB2R [1] (read-out: Ki hCB2R), the Ki is 5000 nM. For the same compound, on Aβ42 (50 µM inhibitor and 50 µM Aβ42, mean ± SEM), the inhibition at 50 µM was found to be 16.4 ± 4.2%. The “inhibition of Aβ42 self-aggregation (in words)” value at Aβ42 is given as “quite weak”.

`Cc1c(C(=O)NN2CCCCC2)nn(-c2ccc(Cl)cc2Cl)c1-c1ccc(Cl)cc1` [Rimonabant, reference compound]: the “[^3H]CP 55,940 displ. @10 µM hCB2R” value at hCB2R [1] was 4%.

Consider `CCOc1ccc(Cc2nc3cc(C(=O)N(CC)CC)ccc3n2CCCNc2c3c(nc4ccccc24)CCCC3)cc1` [3b, 2-(4-Ethoxybenzyl)-N,N-diethyl-1-(3-((1,2,3,4-tetrahydroacridin-9-yl)amino)propyl)-1H-benzo[d]imidazole-5-carboxamide], for which the “[^3H]CP 55,940 displ. @10 µM hCB1R” value at hCB1R came to 15%. In addition, the IC50 on eeAChE (setting [6]) stood at 130 nM. Further, the “inhibitory potency towards hBChE compared to tacrine” value on hBChE is reported as “increased inhibitory potency”.

In the case of `CCOc1ccc(Cc2nc3cc(C(=O)N(CC)CC)ccc3n2CCCCNc2c3c(nc4ccccc24)CCCC3)cc1` [3c, 2-(4-ethoxybenzyl)-N,N-diethyl-1-(4-((1,2,3,4-tetrahydroacridin-9-yl)amino)butyl)-1H-benzo[d]imidazole-5-carboxamide], the “[^3H]CP 55,940 displ. @10 µM hCB1R” value at hCB1R came out at 32%. Further, the IC50 at eeAChE (setting [6]) is 157 nM. For the same compound, the Ki at hCB2R [1] was 25100 nM; at hCB2R [1] (read-out: Ki hCB2R), 26900 nM.

Regarding `Nc1c2c(nc3ccccc13)CCCC2` [Tacrine 1, tacrine, reference compound], on Aβ42, the “inhibition of Aβ42 self-aggregation (in words)” value is “no effect” and the inhibition at 50 µM is < 5%.

Regarding `CCOc1ccc(Cc2nc3cc(C(=O)NCCOCCOCCNc4c5c(nc6ccccc46)CCCC5)ccc3n2CCC(C)C)cc1` [compound 7, 2-(4-Ethoxybenzyl)-1-isopentyl-N-(2-(2-(2-((1,2,3,4-tetrahydroacridin-9-yl)amino)ethoxy)ethoxy)ethyl)-1H-benzo[d]imidazole-5-carboxamide], the “[^3H]CP 55,940 displ. @10 µM hCB1R” value at hCB1R turned out to be 32%. In addition, the IC50 at eeAChE worked out at 1030 nM; against hAChE (IC50 AChE (hAChE)), 1360 nM; against hAChE (pIC50 ± SD AChE (hAChE)) it was 1400 nM. Further, the values for the Ki at hCB2R [1] and on hCB2R [1] (read-out: Ki hCB2R) were 15800 nM and 17400 nM, respectively. Also, at hCB2R [1], the “affinity towards hCB2R (in words)” value is listed as “weaker affinity”.

Regarding `CCOc1ccc(Cc2nc3cc(C(=O)N(CC)CC)ccc3n2CCOCCOCCNc2c3c(nc4ccccc24)CCCC3)cc1` [compound 6, 2-(4-Ethoxybenzyl)-N,N-diethyl-1-(2-(2-(2-((1,2,3,4-tetrahydroacridin-9-yl)amino)ethoxy)ethoxy)ethyl)-1H-benzo[d]imidazole-5-carboxamide], at hCB1R, the “[^3H]CP 55,940 displ. @10 µM hCB1R” value was 11%. The same compound had an IC50 at eeAChE of 150 nM. Further, at hBChE, the IC50 is 90 nM and the “pIC50 ± SD hBChE” value is reported as 90 nM (7.0 ± 0.1). On hCB2R [1], the Ki was 31600 nM and the “affinity towards hCB2R (in words)” value is “weaker affinity”. Further, the Ki on hCB2R [1] (read-out: Ki hCB2R) stood at 28700 nM.

Take `CCOc1ccc(Cc2nc3cc(C(=O)NCCNc4c5c(nc6ccccc46)CCCC5)ccc3n2CCC(C)C)cc1` [4a, 2-(4-Ethoxybenzyl)-1-isopentyl-N-(2-((1,2,3,4-tetrahydroacridin-9-yl)amino)ethyl)-1H-benzo[d]imidazole-5-carboxamide]: the “NO release / nitrite accumulation” value in assay [4] was “reduced”. In addition, in assay [4] (M1 marker), the IL1β release result is on record as “significantly decrease” and the iNOS expression entry is given as “significantly decrease”. In addition, in [4] (M2 marker), the TGFβ2 expression result is given as “not reduced” and the TREM2 expression result is reported as “not reduced”. For the same compound, in assay [5], the “dose that significantly prevented Aβ25-35-induced learning impairments” value is recorded as 0.3 mg/kg and the “most effective dose (completely prevented Aβ25-35 impairments in both tests)” value was found to be 1 mg/kg. The IC50 at eeAChE (setting [6]) is 2.1 nM. Besides, the “pIC50 ± SD hCB2R (in brackets after Ki)” value against hCB2R [1] was 2.5 µM (5.6 ± 0.2). Also, the Ki on hCB2R [1] (read-out: Ki hCB2R) was determined as 2500 nM.

For the origin of these results see patent EP3771713A1 (priority 2019, dated 2021).
